From patent publication US20250235543A1, “MODIFIED PROTEINS AND PROTEIN DEGRADERS” (Cullgen (Shanghai), Inc., priority 2021, published 2025)
pKd: −log10 of the molar value.

Key:
[1] = biological target: T1, DDB1 (Homo sapiens, UniProt Q16531, D705G/DEL396-460/DEL463-701/I704S/T703N); assay: Surface plasmon resonance (SPR) binding of heterobifunctional compounds to DDB1; details: purified DDB1ΔBPB immobilized on CM5 chip, multi-cycle kinetic format, steady state model, read-out: binding affinities (Kd) to DDB1
T1 construct: His6 (N, cleaved yes); TEV protease cleavage site (N, cleaved yes); made in house; host or cells: SF9 insect cells, Bac-to-Bac baculovirus, pFastBacHTB vector
T1 sequence (Q16531 other isoform, or with tags, fused parts or gaps DEL396-460/DEL463-701/T703N/I704S/D705G): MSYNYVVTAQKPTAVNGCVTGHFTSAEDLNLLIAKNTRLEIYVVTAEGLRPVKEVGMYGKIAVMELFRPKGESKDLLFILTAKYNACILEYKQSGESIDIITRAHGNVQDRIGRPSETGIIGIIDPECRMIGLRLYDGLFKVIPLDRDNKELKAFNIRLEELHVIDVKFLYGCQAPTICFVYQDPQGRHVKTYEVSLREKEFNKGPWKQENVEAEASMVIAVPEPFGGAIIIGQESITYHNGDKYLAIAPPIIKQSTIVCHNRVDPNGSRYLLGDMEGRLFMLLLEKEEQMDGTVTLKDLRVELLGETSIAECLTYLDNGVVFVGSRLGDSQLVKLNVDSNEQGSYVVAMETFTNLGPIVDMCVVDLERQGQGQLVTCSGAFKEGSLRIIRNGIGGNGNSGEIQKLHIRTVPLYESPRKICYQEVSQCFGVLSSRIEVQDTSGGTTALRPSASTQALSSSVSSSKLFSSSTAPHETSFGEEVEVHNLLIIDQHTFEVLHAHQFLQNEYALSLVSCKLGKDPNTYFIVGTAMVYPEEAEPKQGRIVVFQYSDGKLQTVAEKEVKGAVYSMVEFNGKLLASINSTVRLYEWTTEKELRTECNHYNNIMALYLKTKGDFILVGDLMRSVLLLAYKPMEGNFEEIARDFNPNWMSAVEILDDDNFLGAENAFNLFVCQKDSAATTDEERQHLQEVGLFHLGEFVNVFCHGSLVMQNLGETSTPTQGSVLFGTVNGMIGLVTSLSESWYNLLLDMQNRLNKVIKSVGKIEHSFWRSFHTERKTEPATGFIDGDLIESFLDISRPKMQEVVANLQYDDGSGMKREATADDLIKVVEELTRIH
Method: To determine whether the addition of linkers and target binders to the DDB1 ligands affected the binding to DDB1 E3 ligase, the binding affinities of heterobifunctional compounds to DDB1 was evaluated using a surface plasmon resonance (SPR) assay. Purified DDB1ΔBPB proteins were immobilized on a CM5 sensor chip and a dose range of compound solutions were injected in multi-cycle kinetic format. Data was fit to steady state model and gave equivalent dissociation constants (Kd).

[2] = test system: cyclin D1, cyclin D2, cyclin D3; assay: Immunoblot of cyclin D protein levels in Calu-1 (and BT-549) cells; assay type: cell-based; details: immunoblot, Calu-1 / BT-549 cells, 16 hours, dose range
Method: Specific exemplary heterobifunctional compounds were characterized in Calu-1, BT-549 and other cells. Cells that express cyclin D1-3 and CDK4/6 proteins were treated with heterobifunctional compounds disclosed herein at indicated concentrations for 16 hours. Cells were collected, lysed and subject to immunoblotting using an antibody specific to cyclin D1, cyclin D2, cyclin D3, CDK4, CDK6 or phosphorylated R^b proteins. Tubulin or GAPDH was used as the loading control. DMSO treatment was used as the negative control.
In a time-course study, Calu-1 cells were treated with 500 nM CPD-002, or 100 nM CPD-031 for indicated period of time prior to immunoblotting (FIG. 4A-4B).
The heterobifunctional compound-mediated degradation was dependent on the ubiquitin-proteasome system and cullin E3 ligase. […] In addition, DDB1 E3 ligase was critical for the degrader-induced cyclin D downregulation. Depletion of DDB1 using CRISPR-Cas9 technology attenuated the cyclin D degradation induced by CPD-031 (FIG. 5C).
(§1) To verify that heterobifunctional compound-mediated degradation is dependent on the binding to CDK4-cyclin D complex, we designed three negative control compounds, CPD-042, CPD-049 and CPD-380, which are derived from CPD-002 CPD-031 and CPD-343, respectively. These three control compounds bear the same DDB1 ligand and linker as their corresponding active heterobifunctional compounds but with modified warheads to impair the binding of the control compounds to CDK4. […] However, the binding to CDK4 is not sufficient for cyclin D degradation. Two cereblon (CRBN)-recruiting reference heterobifunctional compounds, CP-10 (Su, J Med Chem, 2019; CAS No.: 2366268-80-4) and BSJ-03-123 (Brand, Cell Chem Biol, 2019; CAS No.: 2361493-16-3) were analyzed in Calu-1 cells.

[3] = biological target: T1, DDB1; assay: SPR binding assay to immobilized DDB1ΔBPB; details: binding affinities to DDB1
How it was run: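 Untagged Sf9-expressed DDB1ΔBPB (BPB domain aa 396-705 replaced by GNGNSG linker) amine-coupled to CM5 chip at 10,000-12,000 RU; 25° C, HBS-EP pH 7.4 with 5% DMSO. Compounds injected multi-cycle at 100 μM-3.125 μM (6-point two-fold); double-referenced, solvent-corrected data fit to steady-state model for Kd.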

[4] = test system: cyclin D1; assay: Cyclin D1 percentage degradation in Calu-1 cells (immunoblotting); assay type: cell-based; details: 200 nM, 16 hours
How it was run: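 Cyclin D1 degradation was assessed by western blot. Clarified lysates, obtained by RIPA lysis with inhibitors and centrifugation at 13,000 rpm, were normalized by BCA protein assay and separated by SDS-PAGE. Bands were detected with Western ECL Substrate on a Bio-Rad ChemiDoc MP Imaging system and quantified in Image Lab software to derive percentage degradation.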

[5] = biological target: T2, CDK4 (Homo sapiens, UniProt P11802); assay: CDK4 percentage degradation in Calu-1 cells (immunoblotting); assay type: cell-based; details: Calu-1 cells, 200 nM, 16 hours; read-out: CDK4 Degradation (200 nM)
T2 construct: endogenous in cells; host or cells: Calu-1
T2 sequence (P11802 2-303 limits assumed): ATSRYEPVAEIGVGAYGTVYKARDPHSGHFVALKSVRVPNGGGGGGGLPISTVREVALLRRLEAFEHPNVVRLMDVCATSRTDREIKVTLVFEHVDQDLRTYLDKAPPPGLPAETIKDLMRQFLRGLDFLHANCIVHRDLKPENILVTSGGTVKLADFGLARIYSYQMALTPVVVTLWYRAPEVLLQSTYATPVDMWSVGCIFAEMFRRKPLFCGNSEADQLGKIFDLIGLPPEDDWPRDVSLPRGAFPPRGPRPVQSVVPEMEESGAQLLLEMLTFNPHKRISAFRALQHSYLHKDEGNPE
T2 sequence (P24385 whole entry partner): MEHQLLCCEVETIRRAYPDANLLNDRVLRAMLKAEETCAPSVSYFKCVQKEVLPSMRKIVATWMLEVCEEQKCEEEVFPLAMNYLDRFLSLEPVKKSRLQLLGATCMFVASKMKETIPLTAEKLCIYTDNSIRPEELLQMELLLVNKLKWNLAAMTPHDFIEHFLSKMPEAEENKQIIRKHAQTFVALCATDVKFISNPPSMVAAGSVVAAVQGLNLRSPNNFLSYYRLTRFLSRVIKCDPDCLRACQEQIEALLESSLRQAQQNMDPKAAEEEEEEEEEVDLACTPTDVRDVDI
T2 sequence (Q16531 2-1140 limits assumed, further chain): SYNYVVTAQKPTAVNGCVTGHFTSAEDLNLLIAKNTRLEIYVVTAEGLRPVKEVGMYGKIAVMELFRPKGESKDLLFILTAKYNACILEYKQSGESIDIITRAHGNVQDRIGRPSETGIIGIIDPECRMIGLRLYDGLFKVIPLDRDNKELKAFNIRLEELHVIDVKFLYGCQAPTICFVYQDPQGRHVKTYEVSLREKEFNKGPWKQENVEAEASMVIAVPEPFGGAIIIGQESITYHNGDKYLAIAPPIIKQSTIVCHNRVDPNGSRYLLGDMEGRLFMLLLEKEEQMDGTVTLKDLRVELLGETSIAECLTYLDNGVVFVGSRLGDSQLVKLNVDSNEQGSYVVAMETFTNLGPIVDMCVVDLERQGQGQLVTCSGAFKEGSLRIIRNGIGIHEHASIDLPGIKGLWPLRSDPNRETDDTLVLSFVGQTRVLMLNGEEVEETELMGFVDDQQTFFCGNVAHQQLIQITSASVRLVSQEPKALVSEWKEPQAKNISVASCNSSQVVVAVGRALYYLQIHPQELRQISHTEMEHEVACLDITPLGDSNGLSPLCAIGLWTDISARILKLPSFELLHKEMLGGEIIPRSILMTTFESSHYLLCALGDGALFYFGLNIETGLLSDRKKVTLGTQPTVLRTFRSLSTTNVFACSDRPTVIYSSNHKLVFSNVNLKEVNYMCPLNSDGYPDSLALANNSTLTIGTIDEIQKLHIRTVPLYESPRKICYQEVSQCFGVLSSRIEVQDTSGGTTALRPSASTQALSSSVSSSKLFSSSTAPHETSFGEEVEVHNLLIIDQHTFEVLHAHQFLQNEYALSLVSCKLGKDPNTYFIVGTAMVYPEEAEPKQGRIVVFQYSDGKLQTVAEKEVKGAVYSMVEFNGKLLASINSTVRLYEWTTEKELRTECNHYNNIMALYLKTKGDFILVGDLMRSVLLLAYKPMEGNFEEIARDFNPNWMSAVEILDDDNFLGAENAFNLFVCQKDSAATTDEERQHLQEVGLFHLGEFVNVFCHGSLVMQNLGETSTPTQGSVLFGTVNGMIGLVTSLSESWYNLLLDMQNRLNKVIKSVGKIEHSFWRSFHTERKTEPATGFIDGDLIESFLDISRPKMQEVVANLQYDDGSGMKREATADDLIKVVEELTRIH
How it was run: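 CDK4 degradation was measured by immunoblotting. Cells were washed in cold PBS and lysed in RIPA buffer with inhibitors for 30 min at 4° C., then spun at 13,000 rpm to clear. After BCA protein determination, lysates were heated at 99° C. for 5 min in Laemmli buffer, resolved on SDS-PAGE, imaged on a ChemiDoc MP with ECL substrate, and band intensities quantified.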

[6] = test system: cyclin D1, cyclin D2, cyclin D3, CDK4 and CDK6; assay: Immunoblotting of cyclin D and CDK4/6 protein levels in Calu-1 cells; assay type: cell-based
Method: (§2) Calu-1 (FIG. 2A) or BT-549 (FIG. 2B) cells were treated with CPD-002, CPD-004, or palbociclib at indicated concentrations for 16 hours.
Calu-1 cells were treated with CPD-031 at indicated concentrations for 16 hours.
Calu-1 cells were treated with CPD-002 or CPD-031 at 500 nM or 100 nM, respectively for indicated period of time.
Calu-1 cells were pre-treated with DMSO, 20 μM MG-132 (MG), 5 μM MLN4924 (MLN) or 1 μM TAK-243 (TAK) for 2 hours, and subsequently incubated with 500 nM CPD-002, 500 nM CPD-004, or 100 nM CPD-031 for another 4 h or 2 h prior to immunoblotting (FIG. 5A-5B).
Calu-1 cells were treated with a dose range of negative control compounds CPD-042 or CPD-049 for 16 hours (FIG. 6A-6B).
Calu-1 cells were treated with reference compounds CP-10 or BSJ-03-123 at indicated concentrations for 8 hours.
(§3) Cultured cells were washed with cold PBS once and lysed in cold RIPA buffer supplemented with protease inhibitors and phosphatase inhibitors (Beyotime Biotechnology). The solutions were then incubated at 4° C. for 30 min with gentle agitation to fully lysed cells. Cell lysates were centrifuged at 13,000 rpm for 10 min at 4° C. and pellets were discarded. Total protein concentrations in the lysates were determined following BCA assays (Beyotime Biotechnology). Cell lysates were mixed with Laemmli loading buffer and heated at 99° C. for 5 min. Proteins were resolved on SDS-PAGE and visualized using Western ECL Substrate kits on a ChemiDoc MP Imaging system (Bio-Rad). Protein bands were quantitated using the Image Lab software provided by Bio-Rad.

[7] = test system: cyclin D1, cyclin D2, cyclin D3, CDK4 and CDK6; assay: Immunoblotting of cyclin D and CDK4/6 protein levels in BT-549 cells; assay type: cell-based; details: indicated concentrations, 16 hours
Method: as §2, §3

[8] = test system: Rb phosphorylation, cleaved caspase-3; assay: Immunoblotting of downstream Rb phosphorylation and cleaved caspase-3 in Calu-1 or BT-549 cells; assay type: cell-based; details: 16 hours
Method: as §2, §3

[9] = test system: P300 and CBP; assay: Immunoblot of P300 and CBP protein levels in LNCaP, Calu-1, NCI-H1703 or MM.1R cells; assay type: cell-based; details: Calu-1, NCI-H1703 or MM.1R cell lines, 8 hours
Excerpt: Additional exemplary heterobifunctional compounds were designed to modulate the protein levels of either P300/CBP, or BRD4, and characterized in multiple cell lines. […] Taken together, DDB1 ligands conjugating with different target ligands may modulate the cellular target protein levels of cyclin D, CDK4/6, P300/CBP and BRD4.

[10] = test system: P300/CBP; assay: P300/CBP cellular protein degradation; assay type: cell-based
How it was run: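 Treated cells lysed in RIPA buffer with protease and phosphatase inhibitors, protein normalized by BCA assay. P300/CBP levels assessed by SDS-PAGE Western blot with ECL detection and band densitometry.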

[11] = test system: P300 and CBP; assay: Immunoblotting of P300 and CBP protein levels in multiple cell lines; assay type: cell-based; details: LNCaP, Calu-1, NCI-H1703, or MM.1R cells, 8 hours
Method: LNCaP, Calu-1, NCI-H1703, or MM.1R cells were treated with CPD-191 at indicated concentrations for 8 hours.
as §3

[12] = test system: cyclin D1, cyclin D3, CDK4; assay: Immunoblot of cyclin D and CDK4 degradation in T47D cells; assay type: cell-based; details: 48 hours, CPD-380 vs CPD-343
Method: (§4) FIG. 10A-10B show immunoblots of cyclin D1, cyclin D3, CDK4, p-Rb, FoxM1 and cyclin A2 proteins expressed by T47D cells after treatment with a dose range of heterobifunctional compound CPD-343, or its control compound CPD-380 for 48 hours (FIG. 10A), and anti-viability curves of T47D cells in the presence of CP-343, or CPD-380 for 6 days (FIG. 10B).
as §1

[13] = test system: T47D cells; assay: Anti-viability / anti-proliferation in T47D cells; assay type: cell-based; details: 6 days, CPD-380 vs CPD-343
Method: as §4, §1

[14] = test system: T47D cells; assay: Flow cytometric analysis of Annexin V/7-AAD stained T47D cells; assay type: cell-based; details: 6 days
Method: ER^+ breast cancer T47D cells were treated with DMSO, palbociclib, heterobifunctional compound CPD-343, or negative control compound CPD-380 for 6 days at doses approximating IC50 and IC90 concentrations determined in FIGS. 10A and 13. Cells were harvested by trypsinization, staining was carried out using the Annexin V Apoptosis Detection Kit. The percentages of early apoptotic (Annexin V^+7-AAD^−, lower right quadrant), late apoptotic (Annexin V^+7-AAD^+, upper right quadrant) and necrotic cells (Annexin V-7-AAD^+, upper left quadrant) are indicated on dot plots. […] Furthermore, we developed one ER^+ breast cancer T47D model with acquired resistance after long period of treatment with 1 μM palbociclib (over IC90). Cells were deemed resistant when growing in the presence of palbo at the same rate as parental cells. Palbo resistance was determined by CellTiter-Lumi cell viability assay.

[15] = test system: Cyclin D; assay: Immunoblotting of degradation in T47D cells; assay type: cell-based; details: dose range, 48 hours
Method: T47D cells were treated with a dose range of heterobifunctional compound CPD-343 or its negative control compound CPD-380 for 48 hours.
as §3

[16] = test system: T47D cells; assay: Cell viability assay, T47D; assay type: cell-based; details: 10-point serial dilution, 6 days
Method: T47D cells were seeded in 96-well plates and treated with of CP-343, or CPD-380 following a 10-point serial dilution for 6 days.
Cells were seeded at a density of 2,000-5,000 cells per well in 96-well assay plates and treated with test compounds following a 10-point serial dilution for 3-6 days. Cell viability was determined using the CellTiter-Lumi assay kit according to the manufacturer's instructions. The dose-response curves were determined and IC50 values were calculated using the GraphPad Prism software following a nonlinear regression (least squares fit) method. Data presented was mean±standard deviation (SD) unless otherwise indicated.

[17] = test system: T47D cells; assay: Annexin V apoptosis flow cytometry in T47D cells; assay type: cell-based; details: 6 days, doses approximating IC50 and IC90
Method: T47D cells were treated with DMSO, palbociclib, heterobifunctional compound CPD-343, or negative control compound CPD-380 for 6 days at doses approximating IC50 and IC90 concentrations as indicated. Cells were harvested by trypsinization, staining was carried out using the Annexin V Apoptosis Detection Kit.
Assays were performed on the CytoFLEX Cytometer (Beckman Coulter), and data were analyzed using CytExpert software. For cell death and apoptosis analysis, cells were harvested by trypsinization, staining was carried out using the Annexin V Apoptosis Detection Kit (BD Biosciences). Briefly, cells were resuspended in 1× binding buffer and incubated with fluorochrome-conjugated Annexin V and 7-AAD for 15 min in darkness at room temperature.

SMILES: CC(=O)c1c(C)c2cnc(Nc3ccc(N4CCN(CC(=O)NCCOCCOCCOCCOCCOCCNc5ccc(C(=O)Nc6nccs6)c(C)c5)CC4)cn3)nc2n(C2CCCC2)c1=O [CPD-004, 4-((1-(4-(6-((6-Acetyl-8-cyclopentyl-5-methyl-7-oxo-7,8-dihydropyrido[2,3-d]pyrimidin-2-yl)amino)pyridin-3-yl)piperazin-1-yl)-2-oxo-6,9,12,15,18-pentaoxa-3-azaicosan-20-yl)amino)-2-methyl-N-(thiazol-2-yl)benzamide]
- pKd [1]: 5.03
- reduction of cyclin D1, cyclin D2, and cyclin D3 protein levels [2]: particularly effective
- pKd [3]: > 4.70
- CyclinD1 Degradation (200 nM) [4]: A (protein percentage degradation >=80%)
- inhibition at 0.2 µM [5]: 30 to 50%
- cyclin D degradation after pretreatment with MG-132, MLN4924 or TAK-243 ([6]; 2 hours pre-treatment, then 500 nM CPD-002, 500 nM CPD-004 or 100 nM CPD-031 for 4 h or 2 h): diminished the cyclin D degradation effect
- cyclin D1, cyclin D2, cyclin D3, CDK4 and CDK6 protein levels ([6]; indicated concentrations, 16 hours): reduced cyclin D1, cyclin D2, cyclin D3, CDK4 and CDK6 protein levels in a concentration-dependent manner
- cyclin D1, cyclin D2, cyclin D3, CDK4 and CDK6 protein levels [7]: reduced cyclin D1, cyclin D2, cyclin D3, CDK4 and CDK6 protein levels in a concentration-dependent manner
- downstream Rb phosphorylation and cleaved caspase-3 [8]: inhibited downstream Rb phosphorylation and induced cleaved caspase-3 in a concentration-dependent manner

SMILES: CC(=O)N1CCc2c(c(N3CCCc4cc(-c5cnn(C)c5)c(C(F)F)cc43)nn2C2CCN(CC(=O)NCCCCNc3ccc(C(=O)Nc4ncc(C)s4)c(C)c3)CC2)C1 [CPD-191]
- DC50 [9]: < 0.01 µM
- reduction of P300 and CBP protein levels ([9]; dose range): significantly reduced
- P300/CBP Degradation (100 nM) [10]: A (degradation activity >= 80%)
- P300 and CBP protein levels [11]: reduced P300 and CBP protein levels in a concentration-dependent manner

SMILES: CNc1ccc(C(=O)Nc2ccc(OC)nn2)c(NC(=O)CCOCCOCCNC(=O)CN2CCN(c3ccc(N(C)c4ncc5c(C)c(C(C)=O)c(=O)n(C6CCCC6)c5n4)nc3)CC2)c1 [CPD-380]
- decrease of degradation potency versus corresponding active compound [12]: > 15 fold
- decrease of cellular anti-proliferation activity versus corresponding active compound [13]: > 20 fold
- Annexin V+ population ([14]; 10 nM): 7.1%
- Annexin V+ population ([14]; 200 nM): 28.6%
- degradation potencies compared with corresponding active heterobifunctional compound [15]: much weaker degradation potencies
- cell viability (cellular anti-proliferation activity) [16]: much weaker cellular anti-proliferation activities
- effect on cell apoptosis [17]: much less effect on cell apoptosis
